Assay results from article PMC8625360 (Cells, 2021).
Peptide text beside a SMILES is read from it. * marks the point of attachment. 5FAM = O=C1OC2(c3ccc(O)cc3Oc3cc(O)ccc32)c2ccc(C(=O)*)cc21

Columns and labels:
HepG2 WT cells = experiment: Colocalization of EGFP-ATP7B-WT with TGN, lysosome (LAMP1) and LC3B markers; type: cell-based, human; conditions: 200 µM BCS, 24 h
Protocol: For the detection of the effect of copper on autophagosome-lysosome fusion, 50,000 cells of each HepG2 WT and HepG2 ATP7B^−/− were grown on laminin-coated coverslips for 24 h, transduced with BacMam-GFP-RFP-LC3B overnight according to the manufacturer’s recommendations. The cells were then treated with CuSO4 at a concentration range from 100 µM to 800 µM for 24 h, fixed with 4% paraformaldehyde for 15 min and finally stained with 250 ng/mL DAPI (Thermo Fisher scientific, Molecular Probes, D1306) for 5 min. The coverslips were fixed on a glass slide using Mowiol 4–88 (Sigma Aldrich, 81381). The fluorescence cell imaging was acquired using a confocal Zeiss LSM 780 microscope with a 63 × 1.40 Oil DIC M27. […] Red and yellow puncta count per cell was done using the particle analysis in image J. For protein ATP7B trafficking analysis, 50,000 cells of HepG2 WT and HepG2 ATP7B^−/− were cultured in a 500 µL cell culture medium on a laminin-coated coverslip for 24 h, then transfected with EGFP-ATP7B. After 6 h post transfection, cells were transduced with BacMam-RFP-Golgi or the BacMam-RFP-Lysosome overnight, then treated with various concentrations of CuSO4 or 200 µM of bathocuproine disulfonate (BCS) for 24 h or EBSS for 2 h, respectively. To detect LC3B or endogenous ATP7B, the fixed cells were incubated with anti-LC3B or anti-ATP7B antibodies at 4 °C overnight followed by secondary antibody incubation, Alexa Fluor 568 goat anti-rabbit, at temperature for 1 h in the dark. Pearson’s correlation coefficient was analyzed per cell using the colocalization threshold of ImageJ Fiji.

LC3B [1] = target: T1, LC3B (Homo sapiens, UniProt Q9GZQ8); experiment: Fluorescence polarization binding of CF-labelled LIR peptides to purified LC3B; conditions: CF-labelled peptide 2.5 µM (25 µL) + LC3B 0.2–330 µM (25 µL), HEPES buffer 50 mM pH 7.2, 50 mM NaCl, 2 mM DTE, one site-specific binding fit, three independent replications, read-out: Kd (dissociation constant) for LC3B
T1 construct: His6 (N, cleaved yes); MBP (N, cleaved yes); made in house; host or cells: E. coli BL21-codonplus (DE3)-RIL
Protocol: Binding experiments were done in a black 384-microwell plate. […] Each CF-labelled peptide in a volume of 25 µL at a concentration of 2.5 µM was combined with 25 µL of LC3B at a concentration range from 0.2–330 µM. The fluorescent polarization was measured with the excitation and emission wavelengths of […], respectively. The obtained polarization data were corrected by subtraction of the peptide alone (blank). The dissociation constant (Kd) was quantified using a nonlinear curve fitting the site-specific binding on GraphPad Prism 5.0 for Windows (GraphPad Software, La Jolla, CA, USA). Experiments were performed in three independent replications.

LC3B [2] = target: T1, LC3B; experiment: Pull-down with resin-bound GST-LC3B as bait from transfected HEK293H cell lysate; type: binding; conditions: 500 µg HEK293H lysate, western blot, repeated two times
Protocol: GST tagged LC3B was used as a bait to trap the full-length ATP7B from a lysate obtained from ATP7B transfected human embryonic kidney 293 H cell line (HEK293H) cells. To this end, 100,000 cells of HEK293H were cultured in 1 mL of DMEM media (Thermo Fisher Scientific, 31966-047) plus 10% fetal bovine serum (FBS) (Fisher Scientific, 10309433) and 1% Penicillin-Streptomycin (P/S) (Thermo Fisher Scientific, 15140122). Once the cells reached 80% confluence, cells were transfected with pIRES-GFP carrying full-length ATP7B (NM_000053.4) or its W1452A/L1455A mutant using Lipofectamine LTX and plus reagent (Invitrogen, 15338100). […] Blots were imaged on an Infrared fluorescence imaging system using Li-Cor 9120 Odyssey (LI-COR Biosciences, Bad Homburg, Germany). Protein band intensity quantification was done using ImageJ (National Institutes of Health, Bethesda, MD, USA).

| Kd (LC3B [1]) | Molecule | also measured |
| --- | --- | --- |
| > 250 µM | CSCC[C@H](NC(=O)c1ccc2c(c1)C(=O)OC21c2ccc(O)cc2Oc2cc(O)ccc21)C(=O)N[C@@H](CCCCN)C(=O)N[C@@H](CCCCN)C(=O)N[C@@H](CO)C(=O)N[C@@H](Cc1ccccc1)C(=O)N[C@@H](C)C(=O)N[C@@H](Cc1ccccc1)C(=O)N[C@@H](CC(=O)O)C(=O)N[C@@H](CC(N)=O)C(=O)N[C@H](C(=O)NCC(=O)N[C@@H](Cc1ccc(O)cc1)C(=O)N[C@@H](CCC(=O)O)C(=O)NCC(=O)NCC(=O)N[C@@H](CC(C)C)C(=O)N[C@@H](CC(=O)O)C(N)=O)C(C)C [LIR1] (5FAM-MKKSFAFDNVGYEGGLD-NH2) | – |
| > 250 µM | CC(C)[C@H](NC(=O)[C@H](Cc1ccc(O)cc1)NC(=O)[C@H](CO)NC(=O)[C@@H](NC(=O)[C@H](CCC(N)=O)NC(=O)[C@H](CC(=O)O)NC(=O)[C@H](Cc1c[nH]c2ccccc12)NC(=O)[C@@H]1CCCN1C(=O)[C@@H](NC(=O)[C@H](C)NC(=O)[C@H](CCCNC(=N)N)NC(=O)[C@@H]1CCCN1C(=O)[C@H](CO)NC(=O)[C@H](CC(=O)O)NC(=O)c1ccc2c(c1)C(=O)OC21c2ccc(O)cc2Oc2cc(O)ccc21)[C@@H](C)O)C(C)C)C(=O)N[C@@H](CO)C(=O)N[C@@H](CCC(N)=O)C(N)=O [LIR2] (5FAM-DSPRATPWDQVSYVSQ-NH2) | – |

More lines, now with the values behind:

| Molecule | Kd (LC3B [1]) | also measured |
| --- | --- | --- |
| Cc1cc(-c2ccc(S(=O)(=O)O)cc2)c2ccc3c(-c4ccc(S(=O)(=O)O)cc4)cc(C)nc3c2n1 [BCS, bathocuproine disulfonate] | – | fold elevation of ATP7B fraction in the TGN vs basal medium condition (HepG2 WT cells): about 12.6 fold; ATP7B fraction in the TGN (HepG2 WT cells; from mean Pearson's correlation coefficient, 30 cells): 32.8% |
| CC(C)C[C@H](NC(=O)[C@H](C)NC(=O)[C@H](CC(C)C)NC(=O)[C@H](CO)NC(=O)[C@H](C)NC(=O)[C@H](CCCCN)NC(=O)[C@H](CC(=O)O)NC(=O)CNC(=O)[C@H](CC(=O)O)NC(=O)[C@H](CC(=O)O)NC(=O)[C@H](CC(=O)O)NC(=O)[C@H](C)NC(=O)c1ccc2c(c1)C(=O)OC21c2ccc(O)cc2Oc2cc(O)ccc21)C(=O)N[C@@H](CC(N)=O)C(=O)NCC(=O)N[C@@H](CCCNC(=N)N)C(=O)N[C@@H](CC(=O)O)C(N)=O [LIR3^W1452A,L1455A] (5FAM-ADDDGDKASLALNGRD-NH2) | > 250 µM | – |
| CC(C)C[C@H](NC(=O)[C@H](CO)NC(=O)[C@H](C)NC(=O)[C@H](CCCCN)NC(=O)[C@H](CC(=O)O)NC(=O)CNC(=O)[C@H](CC(=O)O)NC(=O)[C@H](CC(=O)O)NC(=O)[C@H](CC(=O)O)NC(=O)[C@H](C)NC(=O)c1ccc2c(c1)C(=O)OC21c2ccc(O)cc2Oc2cc(O)ccc21)C(=O)N[C@@H](CC(C)C)C(=O)N[C@@H](CC(C)C)C(=O)N[C@@H](CC(N)=O)C(=O)NCC(=O)N[C@@H](CCCNC(=N)N)C(=O)N[C@@H](CC(=O)O)C(N)=O [LIR3^W1452A] (5FAM-ADDDGDKASLLLNGRD-NH2) | > 250 µM | – |
| wild-type ATP7B: full-length recombinant copper-transporting ATPase ATP7B from transfected HEK293H cell lysate (protein) MPEQERQITAREGASRKILSKLSLPTRAWEPAMKKSFAFDNVGYEGGLDGLGPSSQVATSTVRILGMTCQSCVKSIEDRISNLKGIISMKVSLEQGSATVKYVPSVVCLQQVCHQIGDMGFEASIAEGKAASWPSRSLPAQEAVVKLRVEGMTCQSCVSSIEGKVRKLQGVVRVKVSLSNQEAVITYQPYLIQPEDLRDHVNDMGFEAAIKSKVAPLSLGPIDIERLQSTNPKRPLSSANQNFNNSETLGHQGSHVVTLQLRIDGMHCKSCVLNIEENIGQLLGVQSIQVSLENKTAQVKYDPSCTSPVALQRAIEALPPGNFKVSLPDGAEGSGTDHRSSSSHSPGSPPRNQVQGTCSTTLIAIAGMTCASCVHSIEGMISQLEGVQQISVSLAEGTATVLYNPSVISPEELRAAIEDMGFEASVVSESCSTNPLGNHSAGNSMVQTTDGTPTSVQEVAPHTGRLPANHAPDILAKSPQSTRAVAPQKCFLQIKGMTCASCVSNIERNLQKEAGVLSVLVALMAGKAEIKYDPEVIQPLEIAQFIQDLGFEAAVMEDYAGSDGNIELTITGMTCASCVHNIESKLTRTNGITYASVALATSKALVKFDPEIIGPRDIIKIIEEIGFHASLAQRNPNAHHLDHKMEIKQWKKSFLCSLVFGIPVMALMIYMLIPSNEPHQSMVLDHNIIPGLSILNLIFFILCTFVQLLGGWYFYVQAYKSLRHRSANMDVLIVLATSIAYVYSLVILVVAVAEKAERSPVTFFDTPPMLFVFIALGRWLEHLAKSKTSEALAKLMSLQATEATVVTLGEDNLIIREEQVPMELVQRGDIVKVVPGGKFPVDGKVLEGNTMADESLITGEAMPVTKKPGSTVIAGSINAHGSVLIKATHVGNDTTLAQIVKLVEEAQMSKAPIQQLADRFSGYFVPFIIIMSTLTLVVWIVIGFIDFGVVQRYFPNPNKHISQTEVIIRFAFQTSITVLCIACPCSLGLATPTAVMVGTGVAAQNGILIKGGKPLEMAHKIKTVMFDKTGTITHGVPRVMRVLLLGDVATLPLRKVLAVVGTAEASSEHPLGVAVTKYCKEELGTETLGYCTDFQAVPGCGIGCKVSNVEGILAHSERPLSAPASHLNEAGSLPAEKDAVPQTFSVLIGNREWLRRNGLTISSDVSDAMTDHEMKGQTAILVAIDGVLCGMIAIADAVKQEAALAVHTLQSMGVDVVLITGDNRKTARAIATQVGINKVFAEVLPSHKVAKVQELQNKGKKVAMVGDGVNDSPALAQADMGVAIGTGTDVAIEAADVVLIRNDLLDVVASIHLSKRTVRRIRINLVLALIYNLVGIPIAAGVFMPIGIVLQPWMGSAAMAASSVSVVLSSLQLKCYKKPDLERYEAQAHGHMKPLTASQVSVHIGMDDRWRDSPRATPWDQVSYVSQVSLSSLTSDKPSRHSAAADDDGDKWSLLLNGRDEEQYI | – | ATP7B in elution fraction of GST-LC3B pull-down (LC3B [2]): detected in the elution fraction |
